Source: patent US4501747A, “Certain amide derivatives of 2-guanidino-thiazoles and compositions containing same” (Sanofi, priority 1982, dated 1985)
Structures can show the parent of a compound that is named as a salt. Where two headings read alike, the source gives them in different places.

Columns and labels:
[1] = system: rat stomach; details: i.v., as maleate; cited from earlier work
[2] = target: T1, histamine H2 receptors (Rattus norvegicus, UniProt P25102); test: antisecretory activity: antagonism of the gastric acid hypersecretion induced by histamine in the atropinized rat (Ghosh and Schild, modified according to Black et al.); type: in vivo; details: for ED50: read-out: DI50 (ID50: dose which inhibits by 50% the gastric hypersecretion induced by histamine)
T1 construct: from tissue; host or cells: stomach of the atropinized rat, in vivo (endogenous receptor)
Protocol: According to this test, a gastric acid hypersecretion is induced by intravenous infusion of a sub-maximal dose of histamine equivalent to 15 mcmol/kg/hour and the gastric secretion is measured by perfusion of a physiological solution at a constant speed in the stomach of the animal.
Such a ID50 represents the index of the gastric H2 -blocking action.

[3] = acute toxicity by intraperitoneal route in the mouse; type: in vivo; details: in vivo, ip
Excerpt: (§1) With respect of their degree of activity, the compounds of the present invention are poorly toxic.

[4] = system: mouse; test: as above; type: in vivo; details: 375 mg/kg
Excerpt: as §1

[5] = atropinized rat, intravenous route, single administration, histamine i.v. infusion 15 mcmol/kg/hour

T1 sequence (P25102 whole entry): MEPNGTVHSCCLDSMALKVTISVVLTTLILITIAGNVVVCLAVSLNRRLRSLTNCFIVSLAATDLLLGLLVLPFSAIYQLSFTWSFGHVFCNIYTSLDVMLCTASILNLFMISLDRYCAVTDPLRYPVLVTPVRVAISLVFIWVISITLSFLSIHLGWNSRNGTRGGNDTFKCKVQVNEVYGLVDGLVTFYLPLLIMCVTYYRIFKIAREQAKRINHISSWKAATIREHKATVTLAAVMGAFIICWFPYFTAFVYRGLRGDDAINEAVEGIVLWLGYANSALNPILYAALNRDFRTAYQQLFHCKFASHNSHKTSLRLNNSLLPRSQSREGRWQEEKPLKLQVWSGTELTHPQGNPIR

SMILES	ED50 [2, 5]	Relative potency (cimetidine = 1) ([2]; atropinized rat, i.v.)	also measured
N=C(N)Nc1nc(CSCCNC=O)cs1 [2-guanidino-4-[(2-formamido)ethylthiomethyl]thiazol]	–	–	ED50 [1]: 0.25 mg/kg
CS(=O)(=O)Nc1ccc(C(=O)NCCSCc2csc(NC(=N)N)n2)cc1 [Compound A, 4-methanesulfonamido-N-[2-(2-guanidinothiazol-4-ylmethylthio)ethyl]benzamide, reference compound]	1.66 µmol/kg	0.57	–
N=C(N)Nc1nc(CSCCNC(=O)c2cccnc2)cs1 [Compound B, N-[2-(2-guanidinothiazol-4-ylmethylthio)ethyl]nicotinamide, reference compound]	0.28 µmol/kg	7.39	LD50 [3]: 342 µmol/kg
CNC(=C[N+](=O)[O-])NCCSCc1ccc(CN(C)C)o1 [Ranitidine, N-[2-[[5-[(dimethylamino)methyl]furfuryl]thio]ethyl]-N'-methyl-2-nitro-1,1-ethenediamine, reference compound]	–	3.80	–
CS(=O)(=O)Nc1cccc(C(=O)NCCSCc2csc(NC(=N)N)n2)c1.Cl [SR 57938 A, 3-methanesulfonamido-N-[2-(2-guanidinothiazol-4-ylmethylthio)ethyl]benzamide hydrochloride]	–	6.33	activity compared with reference compounds ([2]; comparison in words, from Table I, atropinized rat, i.v.): ten times more active than "Compound A"; ED50 ([2]; rat, iv): 0.15 µmol/kg
N=C(N)Nc1nc(CSCCNC(=O)c2ccc[n+]([O-])c2)cs1 [SR 57957 A, neutral fumarate of N-[2-(2-guanidinothiazol-4-ylmethylthio)ethyl]-3-pyridine carboxamide 1-oxide]	0.1 µmol/kg	9.5	LD50 [3]: > 900 µmol/kg; mortality [4]: does not cause any mortality
N=C(N)Nc1nc(CSCCNC(=O)c2cccc(NS(=O)(=O)c3ccccc3)c2)cs1 [SR 57963 A, neutral fumarate of 3-benzenesulfonamido-N-[2-(2-guanidinothiazol-4-ylmethylthio)ethyl]benzamide]	0.065 µmol/kg	14.6	–
